Data from patent US12281057B2 (VERTEX PHARMACEUTICALS INCORPORATED, priority 2017, dated 2025).
Like-named read-outs stand apart in the source and are kept apart here.

Target: truncated form of human NaV 1.8 with full channel activity (Homo sapiens, UniProt Q9Y5Y9)
Assay: E-VIPR Assay Method A for detecting and measuring Nav inhibition (HEK cells, membrane potential FRET dyes, electrical stimulation)
Type: cell-based
Details: HEK cells expressing human NaV 1.8, HS (human serum) in compound loading buffer, 11 point dose response, top dose 3 μM
In short: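 Read-out: FRET membrane-potential dye ratio (460/580 nm) before and during E-VIPR field stimulation at 10 Hz for 10 s, expressed as % activity between DMSO and positive controls. Cells: HEK with truncated human NaV1.8; compound preincubated 30 min at room temp, final DMSO 0.625%.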

[1] = Table 20A, read-out: Nav 1.8 MedChem Optical Assay EVIPR Assay Method A HS IC50
[2] = Table 20, read-out: Nav 1.8 MedChem Optical Assay EVIPR Assay Method A HS IC50

Chain of truncated form of human NaV 1.8 with full channel activity (Q9Y5Y9 126-1722 limits assumed): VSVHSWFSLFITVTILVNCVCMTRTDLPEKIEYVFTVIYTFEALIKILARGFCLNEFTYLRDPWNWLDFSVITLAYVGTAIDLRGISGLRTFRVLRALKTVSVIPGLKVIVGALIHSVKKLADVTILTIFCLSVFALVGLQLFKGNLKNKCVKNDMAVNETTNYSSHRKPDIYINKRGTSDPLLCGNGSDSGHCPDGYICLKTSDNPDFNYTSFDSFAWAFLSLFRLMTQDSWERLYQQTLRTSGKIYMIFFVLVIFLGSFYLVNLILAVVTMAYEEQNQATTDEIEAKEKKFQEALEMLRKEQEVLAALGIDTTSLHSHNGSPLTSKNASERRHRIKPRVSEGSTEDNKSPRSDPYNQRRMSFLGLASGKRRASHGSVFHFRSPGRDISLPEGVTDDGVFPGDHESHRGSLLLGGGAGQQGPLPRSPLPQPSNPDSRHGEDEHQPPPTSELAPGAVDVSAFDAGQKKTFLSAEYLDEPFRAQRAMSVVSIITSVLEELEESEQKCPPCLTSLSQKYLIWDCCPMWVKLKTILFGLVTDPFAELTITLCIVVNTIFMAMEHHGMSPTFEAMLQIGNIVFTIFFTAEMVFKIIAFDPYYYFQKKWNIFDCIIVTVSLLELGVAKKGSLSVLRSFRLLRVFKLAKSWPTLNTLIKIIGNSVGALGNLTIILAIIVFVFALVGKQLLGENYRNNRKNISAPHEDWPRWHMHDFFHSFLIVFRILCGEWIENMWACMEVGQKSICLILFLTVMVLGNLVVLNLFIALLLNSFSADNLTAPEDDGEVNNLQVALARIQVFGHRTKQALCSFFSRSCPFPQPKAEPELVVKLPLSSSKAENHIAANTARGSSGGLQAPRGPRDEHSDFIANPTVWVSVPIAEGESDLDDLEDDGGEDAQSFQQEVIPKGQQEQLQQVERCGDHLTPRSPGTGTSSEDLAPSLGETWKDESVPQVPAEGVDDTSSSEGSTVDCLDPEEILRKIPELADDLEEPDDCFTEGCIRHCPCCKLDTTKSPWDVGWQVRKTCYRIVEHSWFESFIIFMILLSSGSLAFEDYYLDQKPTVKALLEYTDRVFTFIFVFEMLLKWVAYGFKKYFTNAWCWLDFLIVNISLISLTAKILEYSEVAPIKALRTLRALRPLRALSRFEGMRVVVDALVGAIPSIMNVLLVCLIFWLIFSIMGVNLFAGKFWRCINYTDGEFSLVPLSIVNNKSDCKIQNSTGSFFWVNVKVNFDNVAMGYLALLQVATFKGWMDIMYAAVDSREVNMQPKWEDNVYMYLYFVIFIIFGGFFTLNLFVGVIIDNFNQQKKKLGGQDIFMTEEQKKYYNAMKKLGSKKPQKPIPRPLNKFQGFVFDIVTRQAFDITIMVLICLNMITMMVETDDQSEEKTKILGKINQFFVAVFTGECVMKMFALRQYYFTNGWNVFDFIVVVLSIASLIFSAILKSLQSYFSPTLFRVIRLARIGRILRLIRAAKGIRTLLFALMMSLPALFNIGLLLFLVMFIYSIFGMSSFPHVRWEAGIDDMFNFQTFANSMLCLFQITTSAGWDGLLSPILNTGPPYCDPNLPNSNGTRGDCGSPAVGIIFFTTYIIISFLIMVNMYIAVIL

IC50 [1] | IC50 [2] | SMILES
38 nM |  | [2H]C([2H])([2H])Oc1cc(OC(F)(F)F)ccc1Oc1cc(C(F)(F)F)cc(C(F)(F)F)c1C(=O)Nc1ccnc(C(N)=O)c1 [Compound 175, 4-[[2-[2-(Trideuteriomethoxy)-4-(trifluoromethoxy)phenoxy]-4,6-bis(trifluoromethyl)benzoyl]amino]pyridine-2-carboxamide]
38 nM |  | Cc1cc(OC(F)(F)F)ccc1Oc1ccc(C(F)(F)F)c(F)c1C(=O)Nc1ccc(C(N)=O)c(F)c1 [Compound 66, N-(4-carbamoyl-3-fluoro-phenyl)-2-fluoro-6-[2-methyl-4-(trifluoromethoxy)phenoxy]-3-(trifluoromethyl)benzamide]
170 nM |  | COc1cc(F)ccc1-c1cc(C(C)(C)C)ncc1C(=O)Nc1ccc(F)c(C(N)=O)c1 [Compound 199, 6-tert-butyl-N-(3-carbamoyl-4-fluoro-phenyl)-4-(4-fluoro-2-methoxy-phenyl)pyridine-3-carboxamide]
 | 2 nM | COc1cc(OC(F)(F)F)ccc1Oc1ccc(C(F)(F)F)c(F)c1C(=O)Nc1ccnc(C(N)=O)c1 [Compound 4, 4-[[2-fluoro-6-[2-methoxy-4-(trifluoromethoxy)phenoxy]-3-(trifluoromethyl)benzoyl]amino]pyridine-2-carboxamide]
10 nM |  | [2H]C([2H])([2H])Oc1cc(OC(F)(F)F)ccc1Oc1cc(Cl)cc(Cl)c1C(=O)Nc1ccnc(C(N)=O)c1 [Compound 179, 4-[[2,4-Dichloro-6-[2-(trideuteriomethoxy)-4-(trifluoromethoxy)phenoxy]benzoyl]amino]pyridine-2-carboxamide]
190 nM |  | COc1cc(OC(F)(F)F)ccc1Oc1ccc(F)c(Cl)c1C(=O)Nc1ccc(C(N)=O)nc1 [Compound 186, 5-[[2-Chloro-3-fluoro-6-[2-methoxy-4-(trifluoromethoxy)phenoxy]benzoyl]amino]pyridine-2-carboxamide]
190 nM |  | COc1nc(Cl)ccc1Oc1ccc(C(F)(F)F)c(F)c1C(=O)Nc1ccnc(C(N)=O)c1 [Compound 303, 4-(6-((6-chloro-2-methoxypyridin-3-yl)oxy)-2-fluoro-3-(trifluoromethyl)benzamido)picolinamide]
5 nM |  | COc1cc(OC(F)(F)F)ccc1Oc1ccc(C(F)(F)F)c(F)c1C(=O)Nc1cc(C(N)=O)ncc1C [Compound 120, 4-[[2-Fluoro-6-[2-methoxy-4-(trifluoromethoxy)phenoxy]-3-(trifluoromethyl)benzoyl]amino]-5-methyl-pyridine-2-carboxamide]
38 nM |  | NC(=O)c1cc(NC(=O)c2c(Oc3ccc(OC(F)(F)F)c(F)c3)ccc(OC(F)(F)F)c2F)ccn1 [Compound 241, 4-[[2-fluoro-6-[3-fluoro-4-(trifluoromethoxy)phenoxy]-3-(trifluoromethoxy)benzoyl]amino]pyridine-2-carboxamide]
15 nM |  | COc1cc(OC(F)(F)F)ccc1Oc1cc(C2C[C@@H]2C)ncc1C(=O)Nc1ccc(F)c(C(N)=O)c1 (mixture of isomers) [Compound 106, Racemic trans-N-(3-Carbamoyl-4-fluoro-phenyl)-4-[2-methoxy-4-(trifluoromethoxy)phenoxy]-6-(2-methylcyclopropyl)pyridine-3-carboxamide]
350 nM |  | NC(=O)c1cc(NC(=O)c2cc(F)c(C(F)(F)F)cc2Oc2ccc(OC(F)(F)F)cc2)ccn1 [Compound 76, 4-[[5-Fluoro-2-[4-(trifluoromethoxy)phenoxy]-4-(trifluoromethyl)benzoyl]amino]pyridine-2-carboxamide]
2 nM |  | [2H]C([2H])([2H])Oc1c(Oc2ccc(C(F)(F)F)c(F)c2C(=O)Nc2cc(C(N)=O)ncc2C)ccc(OC(F)(F)F)c1F [Compound 227, 4-[[2-Fluoro-6-[3-fluoro-2-(trideuteriomethoxy)-4-(trifluoromethoxy)phenoxy]-3-(trifluoromethyl)benzoyl]amino]-5-methyl-pyridine-2-carboxamide]
100 nM |  | COc1cc(OC(F)(F)F)ccc1Oc1ccc(C(F)(F)F)c(F)c1C(=O)Nc1cc(C(N)=O)c(F)cc1C [Compound 118]
40 nM |  | COc1cc(OC(F)(F)F)ccc1Oc1ccc(C(F)(F)F)c(OC)c1C(=O)Nc1ccc(C(N)=O)nc1 [Compound 202, 5-[[2-Methoxy-6-[2-methoxy-4-(trifluoromethoxy)phenoxy]-3-(trifluoromethyl)benzoyl]amino]pyridine-2-carboxamide]
170 nM |  | COc1c(C(F)(F)F)ncc(Oc2ccc(OC(F)(F)F)cc2)c1C(=O)Nc1cc(C(N)=O)ncc1C [Compound 131, N-(2-Carbamoyl-5-methyl-4-pyridyl)-3-methoxy-5-[4-(trifluoromethoxy)phenoxy]-2-(trifluoromethyl)pyridine-4-carboxamide]
9 nM |  | [2H]C([2H])([2H])Oc1c(Oc2cc(Cl)cc(Cl)c2C(=O)Nc2ccnc(C(N)=O)c2)ccc(OC(F)(F)F)c1F [Compound 224, 4-[[2,4-Dichloro-6-[3-fluoro-2-(trideuteriomethoxy)-4-(trifluoromethoxy)phenoxy]benzoyl]amino]pyridine-2-carboxamide]
340 nM |  | COc1cc(OC(F)(F)F)ccc1Oc1cncc(F)c1C(=O)Nc1ccnc(C(N)=O)c1 [Compound 165, N-(2-Carbamoyl-4-pyridyl)-3-fluoro-5-[2-methoxy-4-(trifluoromethoxy)phenoxy]pyridine-4-carboxamide]
 | 0.7 nM | [2H]C([2H])([2H])Oc1cc(OC(F)(F)F)ccc1Oc1ccc(C(F)(F)F)c(F)c1C(=O)Nc1ccc(F)c(C(N)=O)c1 [Compound 1, N-(3-carbamoyl-4-fluoro-phenyl)-2-fluoro-6-[2-(trideuteriomethoxy)-4-(trifluoromethoxy)phenoxy]-3-(trifluoromethyl)benzamide]
17 nM |  | [2H]C([2H])([2H])Oc1cc(OC(F)(F)F)ccc1Oc1ccc(OC(F)F)c(F)c1C(=O)Nc1ccnc(C(N)=O)c1 [Compound 155, 4-[[3-(Difluoromethoxy)-2-fluoro-6-[2-(trideuteriomethoxy)-4-(trifluoromethoxy)phenoxy]benzoyl]amino]pyridine-2-carboxamide]
55 nM |  | COc1cc(OC(F)(F)F)ccc1Oc1cc(C(F)(F)F)cnc1C(=O)Nc1ccc(F)c(C(N)=O)c1 [Compound 32, N-(3-Carbamoyl-4-fluoro-phenyl)-3-[2-methoxy-4-(trifluoromethoxy)phenoxy]-5-(trifluoromethyl)pyridine-2-carboxamide]
 | 7 nM | NC(=O)c1cc(NC(=O)c2c(Oc3ccc(OC(F)(F)F)cc3)ccc(C(F)(F)F)c2F)ccc1F [Compound 15, N-(3-carbamoyl-4-fluoro-phenyl)-2-fluoro-6-[4-(trifluoromethoxy)phenoxy]-3-(trifluoromethyl)benzamide]
44 nM |  | COc1cc(OC(F)(F)F)ccc1Oc1cc(C2(C)CC2)ncc1C(=O)Nc1ccnc(C(N)=O)c1 [Compound 105, N-(2-Carbamoyl-4-pyridyl)-4-[2-methoxy-4-(trifluoromethoxy)phenoxy]-6-(1-methylcyclopropyl)pyridine-3-carboxamide]
17 nM |  | COc1cc(OC(F)(F)F)ccc1Oc1ccc(C(F)(F)F)c(F)c1C(=O)Nc1cc(C(N)=O)ncc1Cl [Compound 152, 5-Chloro-4-[[2-fluoro-6-[2-methoxy-4-(trifluoromethoxy)phenoxy]-3-(trifluoromethyl)benzoyl]amino]pyridine-2-carboxamide]
3 nM |  | [2H]C([2H])([2H])Oc1c(Oc2ccc(OC(F)(F)F)c(F)c2C(=O)Nc2ccnc(C(N)=O)c2)ccc(OC(F)(F)F)c1F [Compound 225, 4-[[2-Fluoro-6-[3-fluoro-2-(trideuteriomethoxy)-4-(trifluoromethoxy)phenoxy]-3-(trifluoromethoxy)benzoyl]amino]pyridine-2-carboxamide]
88 nM |  | [2H]C([2H])([2H])Oc1cc(OC(F)(F)F)ccc1Oc1cc(OC(F)F)cc(F)c1C(=O)Nc1ccc(C(N)=O)nc1 [Compound 174, 5-[[4-(Difluoromethoxy)-2-fluoro-6-[2-(trideuteriomethoxy)-4-(trifluoromethoxy)phenoxy]benzoyl]amino]pyridine-2-carboxamide]
 | 3 nM | [2H]C([2H])([2H])Oc1cc(OC(F)(F)F)ccc1Oc1ccc(OC(F)(F)F)c(F)c1C(=O)Nc1ccnc(C(N)=O)c1 [Compound 8, 4-[[2-fluoro-6-[2-(trideuteriomethoxy)-4-(trifluoromethoxy)phenoxy]-3-(trifluoromethoxy)benzoyl]amino]pyridine-2-carboxamide]
155 nM |  | COc1cc(OC(F)(F)F)ccc1Oc1cc(C(F)(F)F)cnc1C(=O)Nc1cccc(C(N)=O)c1 [Compound 31, N-(3-Carbamoylphenyl)-3-[2-methoxy-4-(trifluoromethoxy)phenoxy]-5-(trifluoromethyl)pyridine-2-carboxamide]
79 nM |  | NC(=O)c1ccc(NC(=O)c2c(Oc3ccc(OC(F)(F)F)cc3)ccc(C(F)(F)F)c2F)cc1F [Compound 65, N-(4-Carbamoyl-3-fluoro-phenyl)-2-fluoro-6-[4-(trifluoromethoxy)phenoxy]-3-(trifluoromethyl)benzamide]
45 nM |  | CCOc1c(C(F)(F)F)ncc(Oc2ccc(OC(F)(F)F)cc2OC)c1C(=O)Nc1ccnc(C(N)=O)c1 [Compound 206, N-(2-Carbamoyl-4-pyridyl)-3-ethoxy-5-[2-methoxy-4-(trifluoromethoxy)phenoxy]-2-(trifluoromethyl)pyridine-4-carboxamide]
5 nM |  | COc1cc(OC(F)(F)F)ccc1Oc1ccc(C(F)(F)F)c(F)c1C(=O)Nc1cc(C(N)=O)ncc1F [Compound 123, 5-Fluoro-4-[[2-fluoro-6-[2-methoxy-4-(trifluoromethoxy)phenoxy]-3-(trifluoromethyl)benzoyl]amino]pyridine-2-carboxamide]
